Where a name gives a salt, the structure may show the parent alone. Read-outs that look alike come from different tables or passages of the source.
Tested on: NQO1 specific enzyme activity in BEAS-2B cells
Assay: BEAS-2B NQO1 MTT assay
Type: cell-based
Conditions: BEAS-2B cells, 48 hours with compound, MTT readout, read-out: EC50 of NQO1 specific activity induction
Outline: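 BEAS-2B cells treated with compound 48 h at 37° C, 5% CO2, then lysed; NQO1 activity in lysate measured kinetically by MTT cocktail at Absorbance 570 nm over 30 min. EC50 for induction from Delta OD/min versus log concentration, 3-parameter fit; Cell Titer Glo run on lysate aliquot.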

SMILES | EC50 (Homo sapiens, BEAS-2B, 48 h) | EC50
CC[C@@H]1CN(Cc2cc([C@H](c3ccc4c(nnn4C)c3C)C(C)C(=O)O)ccc2C)Cc2cc(F)ccc2O1 (stereo partly drawn) [Example 42, (3R)-3-(1,4-Dimethyl-1H-benzo[d][1,2,3]triazol-5-yl)-3-(3-(((R)-2-ethyl-7-fluoro-2,3-dihydrobenzo[f][1,4]oxazepin-4(5H)-yl)methyl)-4-methylphenyl)-2-methylpropanoic Acid, Trifluoroacetic Acid Salt] | 100 to 1000 nM | 
CC[C@@H]1CN(Cc2cc(C(CCc3cn(CC)nn3)C(C)(C)C(=O)O)ccc2C)Cc2ncccc2O1 (single isomer, unassigned) [Example 252] |  | 10 to 100 nM
CC[C@@H]1CN(Cc2nc(C(c3ccc4c(nnn4C)c3C)C(C)(C)C(=O)O)ccc2C)Cc2cnccc2O1 (stereo partly drawn) [Example 212, 3-(1,4-Dimethyl-1H-benzo[d][1,2,3]triazol-5-yl)-3-(6-(((R)-2-ethyl-2,3-dihydropyrido[3,4-f][1,4]oxazepin-4(5H)-yl)methyl)-5-methylpyridin-2-yl)-2,2-dimethylpropanoic Acid, Formic Acid Salt] | 10 to 100 nM | 
Cc1ccc(C(CC(=O)O)c2ccc3c(nnn3C)c2C)cc1CN1CCCC(S(=O)(=O)c2ccccc2)C1 (centres unmarked) [Example 185, 3-(1,4-Dimethyl-1H-benzo[d][1,2,3]triazol-5-yl)-3-(4-methyl-3-((3-(phenylsulfonyl)piperidin-1-yl)methyl)phenyl)propanoic Acid] | 10 to 100 nM | 
Cc1ccc(C(CC(=O)O)c2ccc3c(nnn3C)c2C)cc1Cn1ccnc1CC1CCCCC1 (centres unmarked) [Example 127, 3-(3-((2-(Cyclohexylmethyl)-1H-imidazol-1-yl)methyl)-4-methylphenyl)-3-(1,4-dimethyl1H-benzo[d][1,2,3]triazol-5-yl)propanoic Acid] | 10 to 100 nM | 
Cc1c(C(CC(=O)O)c2ccc(F)c(CN3Cc4ncccc4OC(C)(C)C3)c2)ccc2c1nnn2C (single isomer, unassigned; isomer 1) [Example 261] | 100 to 1000 nM | 
CC[C@@H]1CN(Cc2cc([C@@H](CC(=O)O)c3ccc4c(nnn4C)c3C)ccc2C)Cc2cnccc2O1 [Example 43, (R)-3-(1,4-Dimethyl-1H-benzo[d][1,2,3]triazol-5-yl)-3-(3-(((R)-2-ethyl-2,3-dihydropyrido[3,4-f][1,4]oxazepin-4(5H)-yl)methyl)-4-methylphenyl)propanoic Acid, Formic Acid Salt] | 1000 to 10000 nM | 
CC[C@@H]1CN(Cc2cc(C(CC(=O)O)c3ccc(F)cc3F)ccc2C)Cc2ccccc2O1 (stereo partly drawn) [Example 117, 3-(2,4-Difluorophenyl)-3-(3-(((R)-2-ethyl-2,3-dihydrobenzo[f][1,4]oxazepin-4(5H)-yl)methyl)-4-methylphenyl)propanoic Acid, Formic Acid Salt] | 1000 to 10000 nM | 
CC[C@@H]1CN(Cc2cc(C(CC(=O)O)c3ccc4c(nnn4C)c3C)ccc2C)Cc2cccc(F)c2O1 (stereo partly drawn) [Example 80, 3-(1,4-Diemthyl-1H-benzo[d][1,2,3]triazol-5-yl)-3-(3-(((R)-2-ethyl-9-fluoro-2,3-dihydrobenzo[f][1,4]oxazepin-4(5H)-yl)methyl)-4-methylphenyl)propanoic acid, formic acid salt] | 10 to 100 nM | 
CC[C@@H]1CN(Cc2cc(C(CC(=O)O)c3ccc4c(nnn4C)c3C)ccc2C)Cc2ccc(C)cc2O1 (stereo partly drawn) [Example 85, Ammoniumn 3-(1,4-Dimethyl-1H-benzo[d][1,2,3]triazol-5-yl)-3-(3-(((R)-2-ethyl-8-methyl-2,3-dihydrobenzo[f][1,4]oxazepin-4(5H)-yl)methyl)-4-methyphenyl)propanoate] | 100 to 1000 nM | 
CC[C@@H]1CN(Cc2cc([C@@H](c3ccc4c(nnn4C)c3C)C(C)(C)C(=O)N3CCSC3=O)ccc2C)Cc2cnccc2O1 [Example 256, 3-((S)-3-(1,4-Dimethyl-1H-benzo[d][1,2,3]triazol-5-yl)-3-(3-(((R)-2-ethyl-2,3-dihydropyrido[3,4-f][1,4]oxazepin-4(5H)-yl)methyl)-4-methylphenyl)-2,2-dimethylpropanoyl)thiazolidin-2-one, Trifluoroacetic Acid Salt] | 10 to 100 nM | 
Cc1ccc([C@H](CC(=O)O)c2ccc3c(nnn3C)c2C)cc1CN1Cc2cccc(F)c2OC(C)(C)C1 [Example 178, (S)-3-(1,4-Dimethyl-1H-benzo[d][1,2,3]triazol-5-yl)-3-(3-((9-fluoro-2,2-dimethyl-2,3-dihydrobenzo[f][1,4]oxazepin-4(5H)-yl)methyl)-4-methylphenyl)propanoic acid] | 10 to 100 nM | 
Cc1ccc(C(c2ccc3c(nnn3C)c2C)C(C)(C)C(=O)O)cc1Cn1ccnc1CN1CCCCC1 (centres unmarked) [Example 123, 3-(1,4-Dimethyl-1H-benzo[d][1,2,3]triazol-5-yl)-2,2-dimethyl-3-(4-methyl-3-((2-(piperidin-1-ylmethyl)-1H-imidazol-1-yl)methyl)phenyl)propanoate, Sodium salt] | 10 to 100 nM | 
CCC1CCN(Cc2nccn2Cc2cc([C@@H](c3ccc4c(nnn4C)c3C)C(C)(C)C(=O)O)ccc2Cl)CC1 [Example 237, (S)-3-(4-Chloro-3-((2-((4-ethylpiperidin-1-yl)methyl)-1H-imidazol-1-yl)methyl)phenyl)-3-(1,4-dimethyl-1H-benzo[d][1,2,3]triazol-5-yl)-2,2-dimethylpropanoic Acid] | < 1 nM | 
CC[C@@H]1CN(Cc2cc(C(CC(=O)O)c3ccc4c(nnn4C)c3C)ccc2C)Cc2ccccc2O1 (stereo partly drawn) [Example 73, 3-(1,4-Diemthyl-1H-benzo[d][1,2,3]triazol-5-yl)-3-(3-(((R)-2-ethyl-2,3-dihydrobenzo[f][1,4]oxazepin-4(5H)-yl)methyl)-4-methylphenyl)propanonic acid, formic acid salt] | 100 to 1000 nM | 
Cc1ccc(C(c2ccc3c(nnn3C)c2C)C(C)(C)C(=O)O)cc1Cn1ccnc1CN1C2CCCC1CC2 (centres unmarked) [Example 156, 3-(3-((2-(8-Azabicyclo[3.2.1]octan-8-ylmethyl)-1H-imidazol-1-yl)methyl)-4-methylphenyl)-3-(1,4-dimethyl-1H-benzo[d][1,2,3]triazol-5-yl)-2,2-dimethylpropanoic Acid, Trifluoroacetic Acid Salt] | 10 to 100 nM | 
Cc1ccc(C(c2ccc3c(nnn3C)c2C)C(C)(C)C(=O)O)cc1CN1CCCc2ccccc2C1 (centres unmarked) [Example 104, 3-(3-((4,5-Dihydro-1H-benzo[c]azepin-2(3H)-yl)methyl)-4-methylphenyl)-3-(1,4-dimethyl-1H-benzo[d][1,2,3]triazol-5-yl)-2,2-dimethylpropanoic acid] | 1 to 10 nM | 
CCn1cc(CCC(c2ccc(C)c(CN3Cc4cnccc4OC(C)(C)C3)c2)C(C)C(=O)O)nn1 (single isomer, unassigned) [Example 227, 3-(3-((2,2-Dimethyl-2,3-dihydropyrido[3,4-f][1,4]oxazepin-4(5H)-yl)methyl)-4-methylphenyl)-5-(1-ethyl-1H-1,2,3-triazol-4-yl)-2-methylpentanoic acid, Trifluoroacetic acid salt] | 100 to 1000 nM | 
Cc1ccc(C(CC(=O)O)c2ccc3c(nnn3C)c2C)cc1CN1CCCn2cncc2C1 (centres unmarked) [Example 92, 3-(3-((6,7-Dihydro-5H-imidazo[1,5-a][1,4]diazepin-8(9H)-yl)methyl)-4-methylphenyl)-3-(1,4-dimethyl-1H-benzo[d][1,2,3]triazol-5-yl)propanoic acid, Sodium salt] | 1000 to 10000 nM | 
CCn1nnc2c(C)c([C@H](c3ccc(C)c(CN4Cc5cnccc5OC(C)(C)C4)c3)[C@@H](C)C(=O)O)cc(Cl)c21 [Example 209, (2R,3S)-3-(7-Chloro-1-ethyl-4-methyl-1H-benzo[d][1,2,3]triazol-5-yl)-3-(3-((2,2-dimethyl-2,3-dihydropyrido[3,4-f][1,4]oxazepin-4(5H)-yl)methyl)-4-methylphenyl)-2-methylpropanoic Acid] | 1 to 10 nM | 
Cc1ccc(C(CC(=O)O)c2ccc3c(nnn3C)c2C)cc1CN1CCOc2ccccc2C1 (centres unmarked) [Example 1, 3-(3-((2,3-Dihydrobenzo[f][1,4]oxazepin-4(5H)-yl)methyl)-4-methylphenyl)-3-(1,4-dimethyl-1H-benzo[d][1,2,3]triazol-5-yl)propanoic Acid, Trifluoroacetic Acid Salt] | 1000 to 10000 nM | 
CCC1CCN(Cc2nccn2Cc2cc(C(c3ccc4c(nnn4C)c3C)C(C)(C)C(=O)O)ccc2C)CC1 (centres unmarked) [Example 140, 3-(1,4-Dimethyl-1H-benzo[d][1,2,3]triazol-5-yl)-3-(3-((2-((4-ethylpiperidin-1-yl)methyl)-1H-imidazol-1-yl)methyl)-4-methylphenyl)-2,2-dimethylpropanoic acid, formic acid salt] | 1000 to 10000 nM | 
CCn1nnc2c(Cl)c([C@@H](CC(=O)O)c3ccc(C)c(CN4Cc5ccccc5OC(C)(C)C4)c3)ccc21 [Example 54, (S)-3-(4-Chloro-1-ethyl-1H-benzo[d][1,2,3]triazol-5-yl)-3-(3-((2,2-dimethyl-2,3-dihydrobenzo[f][1,4]oxazepin-4(5H)-yl)methyl)-4-methylphenyl)propanoic acid, hydrochloride] | 10 to 100 nM | 
CCn1nnc2c(C)c([C@H](c3ccc(C)c(CN4Cc5ccccc5OC(C)(C)C4)c3)[C@@H](C)C(=O)O)ccc21 [Example 208, (2R,3S)-3-(3-((2,2-Dimethyl-2,3-dihydrobenzo[f][1,4]oxazepin-4(5H)-yl)methyl)-4-methylphenyl)-3-(1-ethyl-4-methyl-1H-benzo[d][1,2,3]triazol-5-yl)-2-methylpropanoic acid, 2 Trifluoroacetic Acid Salt] | 1 to 10 nM | 
Cc1ccc(C(c2ccc3c(nnn3C)c2C)C(C)(C)C(=O)O)cc1Cn1ccnc1CC1CCOCC1 (centres unmarked) [Example 145, 3-(1,4-Dimethyl-1H-benzo[d][1,2,3]triazol-5-yl)-2,2-dimethyl-3-(4-methyl-3-((2-((tetrahydro-2H-pyran-4-yl)methyl)-1H-imidazol-1-yl)methyl)phenyl) propanoic acid, trifluoroacetic acid salt] | 100 to 1000 nM | 
CCn1nnc2c(C)c([C@@H](c3ccc(C)c(CN4Cc5ccccc5OC(C)(C)C4)c3)C(C)(C)C(=O)O)ccc21 (single isomer, unassigned; enantiomer a) [Example 206] | 1 to 10 nM | 
